From PubChem BioAssay (NCI)
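Interpolation was linear, between the two tested concentrations surrounding the appropriate level; five concentrations were tested over 48 hours in 96-well plates. TGI: concentration producing complete growth inhibition.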

What was measured:
Assay in all cases: DTP human tumour cell line panel, 48 h
[1] = system: SF-268 CNS
[2] = system: OVCAR-3 ovarian
[3] = system: K-562 leukemia
[4] = system: SK-OV-3 ovarian
[5] = system: HT29 colon
[6] = system: MOLT-4 leukemia
[7] = system: MDA-N
[8] = system: IGROV1 ovarian
[9] = system: TK-10 renal
[10] = system: HCT-116 colon
[11] = system: MALME-3M melanoma
[12] = system: EKVX NSCLC
[13] = system: UO-31 renal
[14] = system: T-47D breast
[15] = system: A549 NSCLC
[16] = system: HOP-92 NSCLC
[17] = system: MCF7 breast
[18] = system: SNB-75 CNS
[19] = system: M14 melanoma
[20] = system: MDA-MB-435
[21] = system: SK-MEL-28 melanoma
[22] = system: A498 renal
[23] = system: NCI/ADR-RES ovarian
[24] = system: OVCAR-5 ovarian
[25] = system: SNB-19 CNS
[26] = system: RXF 393 renal
[27] = system: RPMI-8226 leukemia
[28] = system: DU-145 prostate
[29] = system: HS 578T breast
[30] = system: SW-620 colon
[31] = system: HOP-62 NSCLC
[32] = system: NCI-H23 lung
[33] = system: HCT-15 colon
[34] = system: SK-MEL-2 melanoma
[35] = system: UACC-62 melanoma
[36] = system: MDA-MB-231 breast
[37] = system: UACC-257 melanoma
[38] = system: NCI-H522 lung
[39] = system: SN12C renal
[40] = system: PC-3 prostate
[41] = system: SF-295 CNS
[42] = system: 786-0 renal
[43] = system: OVCAR-4 ovarian
[44] = system: KM12 colon
[45] = system: NCI-H226 lung
[46] = system: COLO 205 colon
[47] = system: SK-MEL-5 melanoma
[48] = system: U251 CNS
[49] = system: CAKI-1 renal
[50] = system: NCI-H460 lung
[51] = system: LOX IMVI melanoma
[52] = system: SR leukemia
[53] = system: HCC-2998 colon
[54] = system: SF-539 CNS
[55] = system: OVCAR-8 ovarian
[56] = system: ACHN renal
[57] = system: HL-60(TB) leukemia
[58] = system: CCRF-CEM leukemia
[59] = system: BT-549 breast

**Q.** With `Clc1ccc(C2c3ccccc3-c3nc4ccccc4n32)cc1` (stereo not drawn) as the compound, how does the TGI [1] read?
**A.** The TGI was greater than 63.9 µM.

**Q.** What about the TGI [2] of the same compound?
**A.** Its TGI is 37.2 µM.

**Q.** And the TGI [3]?
**A.** The TGI was greater than 100 µM.

**Q.** What about the TGI [4] of the same compound?
**A.** The TGI was greater than 39 µM.

**Q.** What about the TGI [5] of the same compound?
**A.** The TGI was greater than 88.9 µM.

**Q.** And the TGI [6]?
**A.** Its TGI is greater than 51.7 µM.

**Q.** And the TGI [7]?
**A.** Its TGI is greater than 100 µM.

**Q.** And the TGI [8]?
**A.** Its TGI is greater than 86.1 µM.

**Q.** And the TGI [9]?
**A.** The TGI was greater than 100 µM.

**Q.** And the TGI [10]?
**A.** Its TGI is greater than 53.3 µM.

**Q.** And the TGI [11]?
**A.** The TGI was 82.3 µM.

**Q.** And the TGI [12]?
**A.** The TGI was greater than 73.9 µM.

**Q.** What about the TGI [13] of the same compound?
**A.** The TGI was greater than 60.5 µM.

**Q.** And the TGI [14]?
**A.** The TGI was greater than 100 µM.

**Q.** What about the TGI [15] of the same compound?
**A.** Its TGI is greater than 78.7 µM.

**Q.** What about the TGI [16] of the same compound?
**A.** The TGI was greater than 100 µM.

**Q.** And the TGI [17]?
**A.** Its TGI is greater than 68.1 µM.

**Q.** What about the TGI [18] of the same compound?
**A.** The TGI was greater than 100 µM.

**Q.** And the TGI [19]?
**A.** The TGI was 99 µM.

**Q.** What about the TGI [20] of the same compound?
**A.** The TGI was greater than 100 µM.

**Q.** What about the TGI [21] of the same compound?
**A.** Its TGI is greater than 100 µM.

**Q.** And the TGI [22]?
**A.** Its TGI is greater than 79.9 µM.

**Q.** What about the TGI [23] of the same compound?
**A.** Its TGI is greater than 68.2 µM.

**Q.** What about the TGI [24] of the same compound?
**A.** The TGI was greater than 75 µM.

**Q.** And the TGI [25]?
**A.** The TGI was greater than 64.8 µM.

**Q.** What about the TGI [26] of the same compound?
**A.** The TGI was 17.8 µM.

**Q.** And the TGI [27]?
**A.** The TGI was greater than 65 µM.

**Q.** What about the TGI [28] of the same compound?
**A.** Its TGI is greater than 100 µM.

**Q.** And the TGI [29]?
**A.** The TGI was greater than 100 µM.

**Q.** And the TGI [30]?
**A.** The TGI was greater than 100 µM.

**Q.** What about the TGI [31] of the same compound?
**A.** The TGI was 62.8 µM.

**Q.** What about the TGI [32] of the same compound?
**A.** The TGI was greater than 100 µM.

**Q.** And the TGI [33]?
**A.** Its TGI is greater than 100 µM.

**Q.** What about the TGI [34] of the same compound?
**A.** The TGI was greater than 65.4 µM.

**Q.** And the TGI [35]?
**A.** Its TGI is greater than 69.4 µM.

**Q.** And the TGI [36]?
**A.** The TGI was greater than 100 µM.

**Q.** And the TGI [37]?
**A.** The TGI was greater than 100 µM.

**Q.** And the TGI [38]?
**A.** The TGI was 67.9 µM.

**Q.** What about the TGI [39] of the same compound?
**A.** Its TGI is greater than 100 µM.

**Q.** What about the TGI [40] of the same compound?
**A.** Its TGI is greater than 77.1 µM.

**Q.** What about the TGI [41] of the same compound?
**A.** Its TGI is greater than 36.6 µM.

**Q.** And the TGI [42]?
**A.** The TGI was 51 µM.

**Q.** And the TGI [43]?
**A.** Its TGI is greater than 73 µM.

**Q.** And the TGI [44]?
**A.** Its TGI is greater than 100 µM.

**Q.** And the TGI [45]?
**A.** Its TGI is greater than 64.5 µM.

**Q.** What about the TGI [46] of the same compound?
**A.** Its TGI is greater than 100 µM.

**Q.** And the TGI [47]?
**A.** Its TGI is greater than 100 µM.

**Q.** And the TGI [48]?
**A.** The TGI was greater than 100 µM.

**Q.** And the TGI [49]?
**A.** The TGI was greater than 100 µM.

**Q.** And the TGI [50]?
**A.** Its TGI is greater than 100 µM.

**Q.** And the TGI [51]?
**A.** The TGI was 59.2 µM.

**Q.** And the TGI [52]?
**A.** The TGI was greater than 54.4 µM.

**Q.** And the TGI [53]?
**A.** Its TGI is greater than 75.2 µM.

**Q.** And the TGI [54]?
**A.** The TGI was greater than 95.4 µM.

**Q.** And the TGI [55]?
**A.** The TGI was greater than 79.5 µM.

**Q.** And the TGI [56]?
**A.** The TGI was greater than 100 µM.

**Q.** What about the TGI [57] of the same compound?
**A.** Its TGI is greater than 83.3 µM.

**Q.** And the TGI [58]?
**A.** Its TGI is greater than 100 µM.

**Q.** What about the TGI [59] of the same compound?
**A.** The TGI was greater than 100 µM.

**Q.** What does the source list for `CO/C(N)=C(\C#N)N=Cc1ccccc1`?
**A.** TGI [1]: > 100 µM; TGI [2]: > 100 µM; TGI [3]: > 100 µM; TGI [4]: > 100 µM; TGI [5]: > 100 µM; TGI [6]: > 100 µM; TGI [7]: > 100 µM; TGI [8]: > 100 µM; TGI [9]: > 100 µM; TGI [10]: > 100 µM; TGI [11]: > 100 µM; TGI [12]: > 100 µM; TGI [13]: > 100 µM; TGI [14]: > 100 µM; TGI [15]: > 100 µM; TGI [16]: > 100 µM; TGI [17]: > 100 µM; TGI [18]: > 100 µM; TGI [19]: > 100 µM; TGI [20]: > 100 µM; TGI [21]: > 100 µM; TGI [22]: > 100 µM; TGI [23]: > 100 µM; TGI [24]: > 100 µM; TGI [25]: > 100 µM; TGI [26]: > 100 µM; TGI [27]: > 100 µM; TGI [28]: > 100 µM; TGI [29]: > 100 µM; TGI [30]: > 100 µM; TGI [31]: > 100 µM; TGI [32]: > 100 µM; TGI [33]: > 100 µM; TGI [34]: > 100 µM; TGI [35]: > 100 µM; TGI [36]: > 100 µM; TGI [37]: > 100 µM; TGI [38]: > 100 µM; TGI [39]: > 100 µM; TGI [40]: > 100 µM; TGI [41]: > 100 µM; TGI [42]: > 100 µM; TGI [43]: > 100 µM; TGI [44]: > 100 µM; TGI [45]: > 100 µM; TGI [46]: > 100 µM; TGI [47]: > 100 µM; TGI [48]: > 100 µM; TGI [49]: > 100 µM; TGI [50]: > 100 µM; TGI [51]: > 100 µM; TGI [52]: > 100 µM; TGI [53]: > 100 µM; TGI [54]: > 100 µM; TGI [55]: > 100 µM; TGI [56]: > 100 µM; TGI [57]: > 100 µM; TGI [58]: > 100 µM; TGI [59]: > 100 µM
